In the NIST ThermoML archive (doi:10.1016/j.fluid.2012.11.006):
Values joined by “and” are separate entries in the source; they are usually repeats but may differ in a detail not shown here. Identical values can stand only once. ± gives the expanded uncertainty stated by the source.

What was measured:
[1] = molar enthalpy of transition or fusion; conditions: DSC
[2] = Molar enthalpy of transition or fusion; conditions: Crystal; DSC
[3] = molar heat capacity at constant pressure; conditions: 101.33 kPa, Crystal, Flow calorimetry
[4] = molar enthalpy of vaporization or sublimation; conditions: 298.15 K; Crystal; Torsion-effucion

O=C(O)c1cc(Br)cc(Br)c1 [3,5-dibromobenzoic acid]
Conditions	molar enthalpy of transition or fusion	vapor or sublimation pressure
355.2 K, Crystal, Torsion effusion method	–	1.9e-05 ± 2e-05 kPa
358 K, Crystal, Torsion effusion method	–	2.8e-05 ± 2e-05 kPa
359 K, Crystal, Torsion effusion method	–	2.8e-05 ± 2e-05 kPa
360.5 K, Crystal, Torsion effusion method	–	3.8e-05 ± 2e-05 kPa
362.5 K, Crystal, Torsion effusion method	–	4.7e-05 ± 2e-05 kPa
363.8 K, Crystal, Torsion effusion method	–	4.7e-05 ± 2e-05 kPa
365.2 K, Crystal, Torsion effusion method	–	5.7e-05 ± 2e-05 kPa
365.6 K, Crystal, Torsion effusion method	–	5.7e-05 ± 2e-05 kPa
366.4 K, Crystal, Torsion effusion method	–	6.6e-05 ± 2e-05 kPa
366.8 K, Crystal, Torsion effusion method	–	7.6e-05 ± 2.1e-05 kPa
369.2 K, Crystal, Torsion effusion method	–	9.5e-05 ± 2.1e-05 kPa
371 K, Crystal, Torsion effusion method	–	0.000114 ± 2.1e-05 kPa
371.2 K, Crystal, Torsion effusion method	–	0.000114 ± 2.1e-05 kPa
371.3 K, Crystal, Torsion effusion method	–	0.000114 ± 2.1e-05 kPa
372.5 K, Crystal, Torsion effusion method	–	0.000133 ± 2.2e-05 kPa
373 K, Crystal, Torsion effusion method	–	0.000133 ± 2.2e-05 kPa
373.7 K, Crystal, Torsion effusion method	–	0.000133 ± 2.2e-05 kPa
374 K, Crystal, Torsion effusion method	–	0.000152 ± 2.2e-05 kPa
375.6 K, Crystal, Torsion effusion method	–	0.000189 ± 2.3e-05 kPa
376 K, Crystal, Torsion effusion method	–	0.000189 ± 2.3e-05 kPa
377 K, Crystal, Torsion effusion method	–	0.000208 ± 2.4e-05 kPa
377.9 K, Crystal, Torsion effusion method	–	0.000227 ± 2.4e-05 kPa
378.2 K, Crystal, Torsion effusion method	–	0.000208 ± 2.4e-05 kPa
380.2 K, Crystal, Torsion effusion method	–	0.000284 ± 2.7e-05 kPa
380.4 K, Crystal, Torsion effusion method	–	0.000284 ± 2.7e-05 kPa
381.3 K, Crystal, Torsion effusion method	–	0.000303 ± 2.7e-05 kPa
381.5 K, Crystal, Torsion effusion method	–	0.000303 ± 2.7e-05 kPa
383.2 K, Crystal, Torsion effusion method	–	0.000398 ± 3.2e-05 kPa
383.7 K, Crystal, Torsion effusion method	–	0.000398 ± 3.2e-05 kPa
384.1 K, Crystal, Torsion effusion method	–	0.000379 ± 3.1e-05 kPa
384.3 K, Crystal, Torsion effusion method	–	0.000436 ± 3.3e-05 kPa
386.3 K, Crystal, Torsion effusion method	–	0.000474 ± 3.5e-05 kPa
386.6 K, Crystal, Torsion effusion method	–	0.000531 ± 3.8e-05 kPa
386.9 K, Crystal, Torsion effusion method	–	0.000531 ± 3.8e-05 kPa
387.7 K, Crystal, Torsion effusion method	–	0.000531 ± 3.8e-05 kPa
389.8 K, Crystal, Torsion effusion method	–	0.000758 ± 5.1e-05 kPa
390.1 K, Crystal, Torsion effusion method	–	0.00072 ± 4.8e-05 kPa
390.8 K, Crystal, Torsion effusion method	–	0.000796 ± 5.3e-05 kPa
391.1 K, Crystal, Torsion effusion method	–	0.000739 ± 4.9e-05 kPa
393.1 K, Crystal, Torsion effusion method	–	0.000947 ± 6.1e-05 kPa
393.7 K, Crystal, Torsion effusion method	–	0.000947 ± 6.1e-05 kPa
394 K, Crystal, Torsion effusion method	–	0.001004 ± 6.5e-05 kPa
395.6 K, Crystal, Torsion effusion method	–	0.001213 ± 7.7e-05 kPa
395.9 K, Crystal, Torsion effusion method	–	0.001175 ± 7.5e-05 kPa
500.1 K, Liquid, isothermal thermogravimetric	–	1.128 ± 0.081 kPa
500.1 K, Liquid, non-isothermal thermogravimetric	–	1.173 ± 0.084 kPa
500.7 K, Liquid, non-isothermal thermogravimetric	–	1.118 ± 0.11 kPa
501.1 K, Liquid, isothermal thermogravimetric	–	1.191 ± 0.062 kPa
501.1 K, Liquid, non-isothermal thermogravimetric	–	1.135 ± 0.12 kPa
501.3 K, Liquid, non-isothermal thermogravimetric	–	1.141 ± 0.099 kPa
501.6 K, Liquid, isothermal thermogravimetric	–	1.21 ± 0.081 kPa
502.2 K, Liquid, isothermal thermogravimetric	–	1.21 ± 0.082 kPa
504 K, Liquid, non-isothermal thermogravimetric	–	1.377 ± 0.1 kPa
504.6 K, Liquid, isothermal thermogravimetric	–	1.376 ± 0.081 kPa
504.9 K, Liquid, non-isothermal thermogravimetric	–	1.33 ± 0.1 kPa
505.1 K, Liquid, isothermal thermogravimetric	–	1.405 ± 0.082 kPa
505.2 K, Liquid, non-isothermal thermogravimetric	–	1.358 ± 0.1 kPa
505.4 K, Liquid, isothermal thermogravimetric	–	1.401 ± 0.089 kPa
505.6 K, Liquid, non-isothermal thermogravimetric	–	1.401 ± 0.1 kPa
506.3 K, Liquid, isothermal thermogravimetric	–	1.426 ± 0.091 kPa
508.2 K, Liquid, non-isothermal thermogravimetric	–	1.617 ± 0.11 kPa
508.8 K, Liquid, isothermal thermogravimetric	–	1.646 ± 0.082 kPa
508.9 K, Liquid, isothermal thermogravimetric	–	1.615 ± 0.082 kPa
509 K, Liquid, non-isothermal thermogravimetric	–	1.592 ± 0.11 kPa and 1.624 ± 0.11 kPa
509.2 K, Liquid, isothermal thermogravimetric	–	1.652 ± 0.083 kPa
509.4 K, Liquid, non-isothermal thermogravimetric	–	1.653 ± 0.11 kPa
510.3 K, Liquid, isothermal thermogravimetric	–	1.637 ± 0.096 kPa
512.3 K, Liquid, non-isothermal thermogravimetric	–	1.893 ± 0.1 kPa
512.9 K, Liquid, isothermal thermogravimetric	–	1.908 ± 0.1 kPa
513 K, Liquid, isothermal thermogravimetric	–	1.9 ± 0.1 kPa
513.1 K, Liquid, isothermal thermogravimetric	–	1.909 ± 0.1 kPa
513.1 K, Liquid, non-isothermal thermogravimetric	–	1.85 ± 0.11 kPa
513.3 K, Liquid, non-isothermal thermogravimetric	–	1.802 ± 0.11 kPa
513.5 K, Liquid, non-isothermal thermogravimetric	–	1.882 ± 0.12 kPa
514.4 K, Liquid, isothermal thermogravimetric	–	1.98 ± 0.1 kPa
516.3 K, Liquid, non-isothermal thermogravimetric	–	2.222 ± 0.12 kPa
516.7 K, Liquid, isothermal thermogravimetric	–	2.189 ± 0.089 kPa
517 K, Liquid, isothermal thermogravimetric	–	2.217 ± 0.091 kPa
517.1 K, Liquid, isothermal thermogravimetric	–	2.176 ± 0.089 kPa
517.1 K, Liquid, non-isothermal thermogravimetric	–	2.15 ± 0.13 kPa and 2.187 ± 0.13 kPa
517.5 K, Liquid, non-isothermal thermogravimetric	–	2.228 ± 0.12 kPa
518.2 K, Liquid, isothermal thermogravimetric	–	2.223 ± 0.12 kPa
520.1 K, Liquid, non-isothermal thermogravimetric	–	2.546 ± 0.12 kPa
520.6 K, Liquid, isothermal thermogravimetric	–	2.505 ± 0.11 kPa
520.9 K, Liquid, isothermal thermogravimetric	–	2.553 ± 0.11 kPa
521 K, Liquid, non-isothermal thermogravimetric	–	2.478 ± 0.12 kPa
521.2 K, Liquid, isothermal thermogravimetric	–	2.586 ± 0.11 kPa
521.2 K, Liquid, non-isothermal thermogravimetric	–	2.518 ± 0.12 kPa
521.4 K, Liquid, non-isothermal thermogravimetric	–	2.57 ± 0.11 kPa
522.5 K, Liquid, isothermal thermogravimetric	–	2.612 ± 0.12 kPa
524.2 K, Liquid, non-isothermal thermogravimetric	–	2.862 ± 0.11 kPa
525 K, Liquid, isothermal thermogravimetric	–	2.943 ± 0.12 kPa and 2.941 ± 0.12 kPa
525.2 K, Liquid, non-isothermal thermogravimetric	–	2.789 ± 0.14 kPa
525.4 K, Liquid, isothermal thermogravimetric	–	2.995 ± 0.14 kPa
525.4 K, Liquid, non-isothermal thermogravimetric	–	2.858 ± 0.15 kPa
525.5 K, Liquid, non-isothermal thermogravimetric	–	2.884 ± 0.15 kPa
526.3 K, Liquid, isothermal thermogravimetric	–	3.009 ± 0.079 kPa
528.1 K, Liquid, non-isothermal thermogravimetric	–	3.325 ± 0.15 kPa
528.9 K, Liquid, non-isothermal thermogravimetric	–	3.233 ± 0.13 kPa and 3.297 ± 0.14 kPa
529.2 K, Liquid, non-isothermal thermogravimetric	–	3.322 ± 0.08 kPa
[1], 298.15 K, Crystal	28.8 ± 1.55 kcal/mol	–
[1], 491.2 K, Crystal	20.2 kcal/mol and 27.4 kcal/mol	–
[1], 491.2 K, Liquid	7.03 ± 0.86 kcal/mol	–

Conditions	Normal melting temperature [°C]	molar heat capacity at constant pressure
Crystal, DTA	218.1 ± 0.5	–
[3], 288.2 K	–	215.7 ± 0.9 J/K/mol and 215.8 ± 0.9 J/K/mol
[3], 290.2 K	–	217.3 ± 1 J/K/mol and 217.5 ± 1 J/K/mol and 217.4 ± 1 J/K/mol
[3], 292.2 K	–	219.2 ± 0.9 J/K/mol and 219.3 ± 0.9 J/K/mol and 219.4 ± 0.9 J/K/mol
[3], 294.2 K	–	220.3 ± 0.8 J/K/mol and 220.4 ± 0.8 J/K/mol
[3], 296.2 K	–	221.6 ± 0.8 J/K/mol and 221.5 ± 0.8 J/K/mol
[3], 298.2 K	–	223.2 ± 1 J/K/mol and 223.1 ± 1 J/K/mol and 223 ± 1 J/K/mol
[3], 300.2 K	–	224.5 ± 0.9 J/K/mol and 224.9 ± 0.9 J/K/mol and 224.7 ± 0.9 J/K/mol
[3], 302.2 K	–	225.8 ± 0.8 J/K/mol and 225.7 ± 0.8 J/K/mol
[3], 304.2 K	–	227.2 ± 0.8 J/K/mol and 227.1 ± 0.8 J/K/mol and 227 ± 0.8 J/K/mol
[3], 306.2 K	–	228.4 ± 0.8 J/K/mol and 228.3 ± 0.8 J/K/mol
[3], 308.2 K	–	229.6 ± 1 J/K/mol and 229.8 ± 1 J/K/mol and 229.9 ± 1 J/K/mol
[3], 310.2 K	–	231.5 ± 0.9 J/K/mol and 231.6 ± 0.9 J/K/mol
[3], 312.2 K	–	232.5 ± 0.8 J/K/mol and 232.3 ± 0.8 J/K/mol and 232.4 ± 0.8 J/K/mol
[3], 314.2 K	–	234.1 ± 0.9 J/K/mol and 233.9 ± 0.9 J/K/mol and 234 ± 0.9 J/K/mol
[3], 316.2 K	–	235.2 ± 0.9 J/K/mol and 235.3 ± 0.9 J/K/mol
[3], 318.2 K	–	236.9 ± 1 J/K/mol and 236.7 ± 1 J/K/mol and 237 ± 1 J/K/mol
[3], 320.2 K	–	238.5 ± 0.7 J/K/mol and 238.4 ± 0.7 J/K/mol
[3], 322.2 K	–	239 ± 0.8 J/K/mol and 239.2 ± 0.8 J/K/mol
[3], 324.2 K	–	240.7 ± 1 J/K/mol and 240.6 ± 1 J/K/mol and 240.5 ± 1 J/K/mol
[3], 326.2 K	–	242.5 ± 1 J/K/mol and 242.4 ± 1 J/K/mol

Conditions	Molar enthalpy of transition or fusion [kcal/mol]	molar enthalpy [kcal/mol]
[2]	20.2 ± 0.526	–
[4]	–	28.8 ± 0.478
